Laboratory results taken from patent US4843087A (priority 1986, dated 1989).
In brackets after ≈: the same amount, converted by molar mass.

Columns and labels:
[1] = tested on: Polio 2; assay: microbe, parasite or virus in culture; format: cell-based, poliovirus; conditions: Enterovirus C, HeLa, read-out: Polio 2 MIC
[2] = tested on: human rhinovirus (HRV) serotypes; assay: microbe, parasite or virus in culture; format: cell-based; conditions: for MIC50: read-out: Rhinovirus MIC50; for IC (MIC80 of serotype panel): read-out: Rhinovirus MIC80

Row | SMILES | MIC [1] [µg/mL] | MIC50 [2] [µg/mL] | IC (MIC80 of serotype panel) [2] [µg/mL]
1 | Cc1cc(CCCCCCOc2ccc(C3=NCCO3)cc2)on1 [14(b), 5-{6-[4-(4,5-Dihydro-2-oxazolyl)phenoxy]hexyl}-3-methylisoxazole] | 0.017 (≈ 0.0518 µM) | 0.8 (≈ 2.44 µM) | 25.5
2 | Cc1cc(CCCCCCCOc2ccc(C3=NCCO3)cc2F)on1 [19(b), 5-{7-[4-(4,5-Dihydro-2-oxazolyl)-2-fluorophenoxy]heptyl}-3-methylisoxazole] | 0.3 (≈ 0.832 µM) | 0.8 (≈ 2.22 µM) | 99
3 | Cc1noc(CCCCCCCOc2ccc(C3=NCCO3)cc2)c1CO [29(b), 5-{7-[4-(4,5-Dihydro-2-oxazolyl)phenoxy]heptyl}-3-methyl-4-isoxazolemethanol] | 0.02 (≈ 0.0537 µM) | 1.25 (≈ 3.34 µM) | 1.7
4 | Cc1cc(CCCCCCCOc2ccc(C3=NCCO3)cc2C)on1 [31(b), 5-{7-[4-(4,5-Dihydro-2-oxazolyl)-2-methylphenoxy]heptyl}-3-methylisoxazole] | 0.36 (≈ 1.01 µM) | 0.15 (≈ 0.421 µM) | 0.56
5 | Cc1cc(CCCCCCCOc2ccc(C3=NCC(C)O3)cc2)on1 (stereo not shown) [34(b), 5-{7-[4-(4,5-Dihydro-5-methyl-2-oxazolyl)phenoxy]heptyl}-3-methylisoxazole] | 0.49 (≈ 1.37 µM) | 0.2 (≈ 0.561 µM) | 26.5
6 | Cc1cc(CCCCCCCOc2ccc(C3=NCCO3)c(C)c2)on1 [38(b), 5-{7-[4-(4,5-Dihydro-2-oxazolyl)-3-methylphenoxy]heptyl}-3-methylisoxazole] | 0.3 (≈ 0.842 µM) | 0.69 (≈ 1.94 µM) | 0.9
7 | COc1cc(C2=NCCO2)ccc1OCCCCCCCc1cc(C)no1 [41(b), 5-{7-[4-(4,5-Dihydro-2-oxazolyl)-2-methoxyphenoxy]heptyl}-3-methylisoxazole] | 1 (≈ 2.68 µM) | 0.55 (≈ 1.48 µM) | 4
8 | Cc1cc(CCCCCOc2ccc(-c3nc(C)c(C)o3)cc2)on1 [89(d), 5-{5-[4-(4,5-Dimethyl-2-oxazolyl)phenoxy]pentyl}-3-methylisoxazole] | 0.16 (≈ 0.47 µM) | 0.19 (≈ 0.558 µM) | 0.77
9 | Cc1cc(CCCCCOc2ccc(-c3ncc(C)o3)cc2)on1 [93(f), 3-Methyl-5-{5-[4-(5-methyl-2-oxazolyl)phenoxy]pentyl}-isoxazole] | 0.09 (≈ 0.276 µM) | 0.09 (≈ 0.276 µM) | 1.3
10 | Cc1cc(CCCCCCCCOc2ccc(C3=NCCO3)cc2Cl)on1 [Example 22, 5-{8-[2-Chloro-4-(4,5-dihydro-2-oxazolyl)phenoxy]octyl}-3-methylisoxazole] | 1.1 (≈ 2.81 µM) | – | –
11 | CC(=O)OCc1cc(CCCCCCCOc2ccc(C3=NCCO3)cc2)on1 [Example 28, 5-{7-[4-(4,5-Dihydro-2-oxazolyl)phenoxy]heptyl}-3-isoxazolemethanol acetate] | 0.007 | – | –
12 | Cc1cc(CCCCCOc2cccc(C3=NCCO3)c2)on1 [Example 30, 5-{5-[3-(4,5-Dihydro-2-oxazolyl)phenoxy]pentyl}-3-methylisoxazole] | > 0.2 | – | –
13 | Cc1cc(CCCCCOc2ccc(C3=NCCO3)cc2Cl)no1 [Example 37, 3-{5-[2-Chloro-4-(4,5-dihydro-2-oxazolyl)phenoxy]pentyl}-5-methylisoxazole] | 0.4 (≈ 1.15 µM) | – | –
14 | Cc1cc(CCCCCCCOc2ccc(C3=NCCO3)cc2C=O)on1 [Example 69, 5-{7-[4-(4,5-Dihydro-2-oxazolyl)-2-formylphenoxy]heptyl}-3-methylisoxazole] | 0.44 (≈ 1.19 µM) | – | –
15 | Cc1cc(CCCOCOCCOc2ccc(C3=NCCO3)cc2)on1 [Example 73, 5-{3-[[2-[4-(4,5-Dihydro-2-oxazolyl)phenoxy]ethoxy]methoxy]propyl}-3-methylisoxazole] | 0.46 (≈ 1.28 µM) | – | –
16 | Cc1cc(CCCCCCCOc2ccc(C3=NC[C@@H](C)O3)cc2)on1 [Example 123, (R)-5-{7-[4-(4,5-Dihydro-5-methyl-2-oxazolyl)phenoxy]heptyl}-3-methylisoxazole] | 1.01 (≈ 2.83 µM) | – | –
